# According to patent US10172835B2, “Anticancer agent composition” (J-Pharma Co., Ltd., priority 2014, dated 2019):
# Legend:
# Jurkat T-ALL line [1] = test: Cell proliferation of Jurkat human T-ALL cells; format: cell-based
# Protocol: (§1) Two different assays were employed: i) In a 96-well plate format, cells (4.0±0.1×10^4 per well; 100 μL) were incubated with effectors (48 h, 37° C.; n=4 per experiment) and then WST-1 reagent (10 μL; Roche Diagnostics) added to each well of 96-well plates, incubated, and the formazan production was measured at 490 nm; and ii) cells (2.0±0.1×10^4 per well; 100 μL) were incubated with effectors (48 h, 37° C.; n=4 per experiment) and then bromodeoxyuridine reagent (10 μL/well; Roche Diagnostics) was added to each well and incubated (8 h, 37° C.). The cells were then fixed, denatured and incubated with anti-BrdU-conjugated with peroxidase (POD) antibody (100 μL/well). Colorimetric substrate (TMB: tetramethyl-benzidine; 100 μL/well) was added and BrdU incorporation quantified via optical density measurement (450 nm) which corresponds to DNA synthesis and proliferating cells.
# caspase 3 [2] = test: Active caspase 3 staining with Red-DEVD-fmk, KO99L cells; format: cell-based, murine; conditions: countered by QvD-OPH
# Protocol: Cells (1.0±0.1×10^6 per well; 1.0 mL) were stimulated with different COMPOUND-JP doses with or without caspase3 inhibitor Qvd-OH (20 μM). Cells were then stained with caspase 3 inhibitor conjugated (RED-DEVD-FMK; Biovision) and incubated (1.0 h, 37° C. at 5% CO2). Cells were washed with Wash Buffer, then centrifuged (3000 rpm, 5.0 min) and stained with annexin V-FITC (10 μL/mL; Miltenyi Biotech) for 30 min and DAPI (1.0 μg/mL) added prior to examination via a MacsQuant Analyser.
# [3] = tested on: HT-29 cell derived from human large intestine cancer; test: Tumor growth in nude mouse SOI model (HT-29 grafted onto wall of large intestine); format: in vivo
# Description: […] was expressed in a HT-29 cell derived from human large intestine cancer, and which was grafted onto the wall of large intestine of a mouse to produce a metamouse. According to this, the quantity of the size of the tumor could be determined with time with emission intensity. In FIG. 16, the size of tumor in each treatment group was shown with a bar graph. Group 1 is a control group, Groups 2 to 4 are a group in which COM-JP was intraperitoneally administered alone at 3.1, 12.5, and 50 mg/kg weight/day every day for 4 weeks, Group 5 is a group in which CDDP was intraperitoneally administered alone at 2.5 mg/kg/day three times on day 0, day 6, and day 13, Groups 6 to 8 are a group in which Groups 2 to 4 and Group 5 were combined to be administered in combination, and Group 9 is a group in which COM-JP was orally administered at 300 mg/kg/day every day for 4 weeks.
# caspase 3 [4] = test: Western blot of caspase 3 activation and PARP cleavage in primary tPTEN−/− tumor cells (KO#732); format: cell-based, murine; conditions: primary KO#732 cells; COMPOUND-JP 5.0, 10.0 μM; PI-103 10.0 μM; rapamycin 10.0 nM; 2.0-18.0 h
# Protocol: (§2) Cell extracts were prepared using a cell lysis buffer (50 mM HEPES, pH 7.4, 150 mM NaCl, 20 mM EDTA, 100 mM NaF, 10 mM Na3VO4, 0.5% nonyl phenoxypolyethoxylethanol (NP40) supplemented with a cocktail of protease inhibitors. After SDS-PAGE separation and transfer to nitrocellulose immunoblotting was performed using the following antibodies against: Akt (Cell Signaling Technologies, #9272), CHOP (#2895), cleaved caspase 3 (#9664), c-Myc (#9402), eIF2a (#9721), 4EBP1 (#9644), LC3A/B (#12741), PARP (#9542), pJnk (T183/Y185) (#9251), pSer235-236-S6RP (#4856), pSer473-Akt (#9271), pSer65-4EBP1 (#9451) and S6RP (#2217); Bax (Sigma-Aldrich, B8429); PUMA (Abcam, ab54288); Bak (Millipore, 06536); ATF4 (Santa Cruz Biotechnologies, sc200), GADD34 (sc8327), Hsp60 (sc-1722), Hsp90 (sc-13119) and XBP1 (sc-7160); ATF6 (Imgenex, IMG-273).
# caspase 3 [5] = test: Western blot of caspase 3 activation and PARP cleavage, KO99L cells; format: cell-based, murine; conditions: 10.0 μM
# Protocol: as §2
# c-myc = test: Western blot of c-myc levels, KO99L cells; format: cell-based, murine; conditions: COMPOUND-JP 10.0 μM 2.0-24 h; Velcade 8 nM 24 h; KU0063794 10.0 μM; MK-2206 10.0 μM; rapamycin 100 nM
# Protocol: as §2
# [6] = tested on: freshly isolated tPTEN−/− tumor cells; test: WST-1 cell viability of freshly isolated primary tPTEN−/− tumor cells; format: cell-based, murine; conditions: concentration dependent manner
# Protocol: as §1
# LC3 = test: Western blot of LC3 processing (autophagy), KO99L cells; format: cell-based, murine; conditions: 10.0 μM
# Protocol: as §2
# CHOP = test: Western blot of CHOP protein levels, KO99L cells; format: cell-based, murine
# Protocol: as §2
# Jurkat T-ALL line [7] = test: Cell viability of Jurkat human T-ALL cells; format: cell-based
# Protocol: as §1
# normal murine thymocytes = test: WST-1 cell viability of normal thymocytes; format: cell-based
# Protocol: as §1
# [8] = tested on: 44As3-11 cell derived from human scirrhous stomach cancer; test: MTT proliferation of 44As3-11 cells; format: cell-based; conditions: 44As3-11, culture 5 days
# Protocol: The culture in the absence of COM-JP and in the presence of COM-JP with different concentrations in the culture medium of each cancer cell was continued for 5 days. Proliferation activity of the cell on each elapsed day was measured by a MTT method.
# [9] = tested on: normal cord blood mononuclear cells; test: Viability of normal human cord blood mononuclear cells (DAPI, Facs); format: cell-based; conditions: 5.0 and 10.0 μM, 48 h
# KO99-RJ cells = test: WST-1 cell viability of COMPOUND-JP-resistant KO99-RJ cells; format: cell-based, murine; conditions: Mus musculus, 48 h, read-out: decrease in cell viability
# Protocol: as §1
# [10] = tested on: normal resting or activated human PBL cells; test: Cell death analysis of resting or activated human PBL; format: cell-based
# CHOP / mTOR = test: Western blot of CHOP induction and S6RP phosphorylation in KO99-RJ cells; format: cell-based, murine
# Protocol: as §2
# [11] = tested on: Unfolded Protein Response components; test: Western blot of ISR/UPR components, KO99L cells; format: cell-based, murine; conditions: 10.0 μM
# Protocol: as §2
smiles,measurement,setting,value
"Nc1cc(COc2c(Cl)cc(C[C@H](N)C(=O)O)cc2Cl)c2oc(-c3ccccc3)nc2c1 [COMPOUND-JP, O-(5-amino-2-phenylbenzoxazole-7-yl)methyl-3,5-dichloro-L-tyrosine]",proliferation,Jurkat T-ALL line [1],alter
same,cell-associated fluorescence via Red-DEVD-fmk (caspase 3 activation),caspase 3 [2],dose and time-dependent
same,"efficacy on tumor growth, single administration","[3]; COM-JP i.p. 3.1, 12.5, 50 mg/kg/day 4 weeks, CDDP i.p. 2.5 mg/kg/day day 0, 6, 13",not recognized
same,increase of the tumor,"[3]; Group 9: orally 300 mg/kg/day every day for 4 weeks, vs untreated control",more significantly decreased
same,caspase 3 processing and PARP cleavage (apoptosis),caspase 3 [4],induced caspase 3 processing and PARP cleavage
same,caspase 3 cleavage,caspase 3 [5]; 48 hr,essentially all cellular caspase 3 was processed
same,caspase 3 cleavage,caspase 3 [5]; four-to-six hour post addition,caspase 3 cleavage could be observed
same,PARP cleavage,caspase 3 [5]; 24 h,fully cleaved
same,c-myc protein level,c-myc,decreased
same,cell viability in freshly isolated tPTEN−/− tumor cells,[6],influenced cell viability
same,LC3-II accumulation,LC3,stimulated LC3-II accumulation
same,COMPOUND-JP mediated CHOP induction upon EAA supplementation,"CHOP; 10 μM, complete medium plus EAA",prevented CHOP induction
same,"CHOP expression, time course","CHOP; FIG. 5A, COMPOUND-JP 10.0 μM, L-Asp, Erw 2.5 units/ml, 2.0-24 h",rapidly induced CHOP expression
same,CHOP induction,"CHOP; FIG. 5B, COMPOUND-JP 5.0 and 10.0 μM, L-Asp 2.5 units/ml, rapamycin 10.0 nM, MK-2206 10.0 μM, KU0063794 10.0 μM",profound and COMPOUND-JP dose dependent induction
same,cell survival,Jurkat T-ALL line [7],alter cell survival
same,toxicity in normal murine thymocytes,normal murine thymocytes,non-toxic
same,proliferation activity,[8],dose-dependent decrease
same,normal cord blood mononuclear cells (living cells),[9],did not significantly alter
same,cytotoxicity at 40 µM,KO99-RJ cells,~40%
same,cell death,[10],did not induce cell death
same,integrated stress response (CHOP induction),CHOP / mTOR,failed to trigger the integrated stress response
same,mTOR inhibition (S6RP phosphorylation),CHOP / mTOR,failed to inhibit mTOR
same,GADD34,[11],expression
same,full length XBP1,[11],gradually disappeared
same,p38 stress pathway,[11]; 2.0 h,strongly activated
same,ATF4,[11]; 6.0 h,induction
same,ATF6,[11]; 18.0 h,induction
same,eIF2 phosphorylation,[11]; 24 h,De-phosphorylation
